Measurements published in ChEMBL document CHEMBL3414511, “Synthesis of a novel class of substituted benzothiophene or benzofuran derivatives as BMP-2 up-regulators and evaluation of the BMP-2-up-regulating effects in vitro and the effects on glucocorticoid-induced osteoporosis in rats” (Eur J Med Chem, 2015).
Calls of active or inactive are those of the source. The calls are words filed in the database; no cut-off is given here.

What was measured:
Rattus norvegicus [1] = assay: Toxicity in glucocorticoid-induced Wistar rat osteoporosis model assessed as neutrophilic granulocytes level at 30 mg/kg/day, po administered six times a week for 3 months (reference value: 31.95 +/- 8.33%); type: organism-based; set-up: route oral; settings: in vivo
Rattus norvegicus [2] = assay: Toxicity in glucocorticoid-induced Wistar rat osteoporosis model assessed as effect on red blood cells at 30 mg/kg/day, po administered six times a week for 3 months; type: organism-based; set-up: route oral; settings: in vivo
Rattus norvegicus [3] = assay: Toxicity in glucocorticoid-induced Wistar rat osteoporosis model assessed as effect on total bilirubin level at 30 mg/kg/day, po administered six times a week for 3 months; type: organism-based; set-up: route oral; settings: in vivo
Rattus norvegicus [4] = assay: Antiosteoporotic activity in glucocorticoid-induced Wistar rat osteoporosis model assessed as increase in trabecula connectivity at 30 mg/kg/day, po administered six times a week for 3 months by toluidine blue staining-based light microscopic analysis relative to dexamethasone; type: functional, organism-based
Rattus norvegicus [5] = assay: Toxicity in glucocorticoid-induced Wistar rat osteoporosis model assessed as effect on platelets at 30 mg/kg/day, po administered six times a week for 3 months; type: organism-based; set-up: route oral; settings: in vivo
Rattus norvegicus [6] = assay: Toxicity in glucocorticoid-induced Wistar rat osteoporosis model assessed as white blood cells at 30 mg/kg/day, po administered six times a week for 3 months (reference value: 6.28 +/- 2.78 x 10^9/L); type: organism-based; set-up: route oral; settings: in vivo
Rattus norvegicus [7] = assay: Toxicity in glucocorticoid-induced Wistar rat osteoporosis model assessed as effect on glucose level at 30 mg/kg/day, po administered six times a week for 3 months; type: organism-based; set-up: route oral; settings: in vivo
Rattus norvegicus [8] = assay: Antiosteoporotic activity in glucocorticoid-induced Wistar rat osteoporosis model assessed as trabecular bone volume at 30 mg/kg/day, po administered six times a week for 3 months by fluorescence assay (reference value: 33.09 +/- 5.15%); type: functional, Trabecula
Rattus norvegicus [9] = assay: Toxicity in glucocorticoid-induced Wistar rat osteoporosis model assessed as effect on mean corpuscular hemoglobin concentration at 30 mg/kg/day, po administered six times a week for 3 months; type: organism-based; set-up: route oral; settings: in vivo
Rattus norvegicus [10] = assay: Antiosteoporotic activity in glucocorticoid-induced Wistar rat osteoporosis model assessed as increase in trabecula thickness at 30 mg/kg/day, po administered six times a week for 3 months by toluidine blue staining-based light microscopic analysis relative to dexamethasone; type: functional, organism-based
Rattus norvegicus [11] = assay: Antiosteoporotic activity in glucocorticoid-induced Wistar rat osteoporosis model assessed as trabecula formation surface at 30 mg/kg/day, po administered six times a week for 3 months by fluorescence assay (reference value: 7.82 +/- 2.46%); type: functional
Rattus norvegicus [12] = assay: Toxicity in glucocorticoid-induced Wistar rat osteoporosis model assessed as triglycerides level at 30 mg/kg/day, po administered six times a week for 3 months (reference value: 1.13 +/- 0.69 mmol/L); type: organism-based; set-up: route oral; settings: in vivo
Rattus norvegicus [13] = assay: Toxicity in glucocorticoid-induced Wistar rat osteoporosis model assessed as effect on red blood cell specific volume at 30 mg/kg/day, po administered six times a week for 3 months; type: organism-based; set-up: route oral; settings: in vivo
Rattus norvegicus [14] = assay: Toxicity in glucocorticoid-induced Wistar rat osteoporosis model assessed as aspartate transaminase level at 30 mg/kg/day, po administered six times a week for 3 months (reference value: 177.55 +/- 116.98 U/L); type: organism-based; set-up: route oral; settings: in vivo
Rattus norvegicus [15] = assay: Toxicity in glucocorticoid-induced Wistar rat osteoporosis model assessed as alanine transaminase level at 30 mg/kg/day, po administered six times a week for 3 months (reference value: 43.73 +/- 36.21 U/L); type: organism-based; set-up: route oral; settings: in vivo
Rattus norvegicus [16] = assay: Antiosteoporotic activity in glucocorticoid-induced Wistar rat osteoporosis model assessed as increase in trabecula area at 30 mg/kg/day, po administered six times a week for 3 months by toluidine blue staining-based light microscopic analysis relative to dexamethasone; type: functional, organism-based
Rattus norvegicus [17] = assay: Antiosteoporotic activity in glucocorticoid-induced Wistar rat osteoporosis model assessed as trabecula resorption surface at 30 mg/kg/day, po administered six times a week for 3 months by fluorescence assay (reference value: 7.22 +/- 2.04%); type: functional
Rattus norvegicus [18] = assay: Antiosteoporotic activity in glucocorticoid-induced Wistar rat osteoporosis model assessed as increase in trabecula number at 30 mg/kg/day, po administered six times a week for 3 months by toluidine blue staining-based light microscopic analysis relative to dexamethasone; type: functional, organism-based
Rattus norvegicus [19] = assay: Toxicity in glucocorticoid-induced Wistar rat osteoporosis model assessed as effect on hemoglobin at 30 mg/kg/day, po administered six times a week for 3 months; type: organism-based; set-up: route oral; settings: in vivo
Rattus norvegicus [20] = assay: Toxicity in glucocorticoid-induced Wistar rat osteoporosis model assessed as effect on total protein level at 30 mg/kg/day, po administered six times a week for 3 months; type: organism-based; set-up: route oral; settings: in vivo
Rattus norvegicus [21] = assay: Toxicity in glucocorticoid-induced Wistar rat osteoporosis model assessed as effect on red blood cell distribution width at 30 mg/kg/day, po administered six times a week for 3 months; type: organism-based; set-up: route oral; settings: in vivo
Rattus norvegicus [22] = assay: Toxicity in glucocorticoid-induced Wistar rat osteoporosis model assessed as effect on albumin level at 30 mg/kg/day, po administered six times a week for 3 months; type: organism-based; set-up: route oral; settings: in vivo
Rattus norvegicus [23] = assay: Antiosteoporotic activity in glucocorticoid-induced Wistar rat osteoporosis model assessed as mineral apposition rate at 30 mg/kg/day, po administered six times a week for 3 months by fluorescence assay (reference value: 1.06 +/- 0.27 micrometer/day); type: functional
Rattus norvegicus [24] = assay: Toxicity in glucocorticoid-induced Wistar rat osteoporosis model assessed as effect on blood urea nitrogen level at 30 mg/kg/day, po administered six times a week for 3 months; type: organism-based; set-up: route oral; settings: in vivo
Rattus norvegicus [25] = assay: Toxicity in glucocorticoid-induced Wistar rat osteoporosis model assessed as lymph level at 30 mg/kg/day, po administered six times a week for 3 months (reference value: 50.35 +/- 12.96%); type: organism-based; set-up: route oral; settings: in vivo
Rattus norvegicus [26] = assay: Toxicity in glucocorticoid-induced Wistar rat osteoporosis model assessed as effect on creatinine level at 30 mg/kg/day, po administered six times a week for 3 months; type: organism-based; set-up: route oral; settings: in vivo
Rattus norvegicus [27] = assay: Toxicity in glucocorticoid-induced Wistar rat osteoporosis model assessed as effect on mean corpuscular volume at 30 mg/kg/day, po administered six times a week for 3 months; type: organism-based; set-up: route oral; settings: in vivo
[28] = Upregulation of BMP-2 expression in mouse MC3T3-E1 cells at 4 uM after 24 hrs by luciferase reporter gene assay relative to control; type: functional, cell-based
[29] = Acute toxicity in po dosed Kunming mouse administered for 3 days measured during compound dosing and following 14 days; type: organism-based; settings: in vivo
Mus musculus [30] = assay: Acute toxicity in Kunming mouse assessed as behavioral changes at 500 mg/kg, po administered for 3 days measured during compound dosing and following 14 days; type: organism-based; set-up: dose 500 mg/kg, route oral; settings: in vivo, 336 h
Mus musculus [31] = assay: Acute toxicity in Kunming mouse assessed as shiny fur at 500 mg/kg, po administered for 3 days measured during compound dosing and following 14 days; type: organism-based; set-up: dose 500 mg/kg, route oral; settings: in vivo, 336 h

SMILES: CC(=O)c1cc2ccccc2s1
- Activity (Rattus norvegicus [1]): 43.25%
- Activity (Rattus norvegicus [2]): Non-toxic
- Activity (Rattus norvegicus [3]): Non-toxic
- Activity (Rattus norvegicus [4]): Active
- Activity (Rattus norvegicus [5]): Non-toxic
- Activity (Rattus norvegicus [6]): 3.12 ×10⁹ /L
- Activity (Rattus norvegicus [7]): Non-toxic
- Activity (Rattus norvegicus [8]): 31.57%
- Activity (Rattus norvegicus [9]): Non-toxic
- Activity (Rattus norvegicus [10]): Active
- Activity (Rattus norvegicus [11]): 7.36%
- Activity (Rattus norvegicus [12]): 0.46 mmol/L
- Activity (Rattus norvegicus [13]): Non-toxic
- Activity (Rattus norvegicus [14]): 129.83 U/L
- Activity (Rattus norvegicus [15]): 35.25 U/L
- Activity (Rattus norvegicus [16]): Active
- Activity (Rattus norvegicus [17]): 8.36%
- Activity (Rattus norvegicus [18]): Active
- Activity (Rattus norvegicus [19]): Non-toxic
- Activity (Rattus norvegicus [20]): Non-toxic
- Activity (Rattus norvegicus [21]): Non-toxic
- Activity (Rattus norvegicus [22]): Non-toxic
- Activity (Rattus norvegicus [23]): 1.24 micrometer/day
- Activity (Rattus norvegicus [24]): Non-toxic
- Activity (Rattus norvegicus [25]): 39.85%
- Activity (Rattus norvegicus [26]): Non-toxic
- Activity (Rattus norvegicus [27]): Non-toxic

SMILES: CCOC(=O)c1ccc2cc(C(=O)/C=C/c3ccc(OC)c(OC)c3)sc2c1
- Activity [28]: 0.7%

SMILES: COC(=O)c1ccc2sc(C(C)O)cc2c1 (stereo unspecified)
- Activity [28]: 56.9%

SMILES: COc1ccc2oc(C(=O)CS(C)(=O)=O)cc2c1
- Activity [28]: 12.9%

SMILES: COc1ccc2oc(C(=O)C[S+](C)[O-])cc2c1 (stereo unspecified)
- Activity [28]: 2.1%

SMILES: CCOC(=O)c1cc2c(OC)cccc2o1
- Activity [28]: 60%

SMILES: CCOC(=O)c1ccc2cc(C(=O)/C=C/c3ccc(OC)cc3)sc2c1
- Activity [28]: 12.2%

SMILES: C[S+]([O-])CC(O)c1cc2ccccc2s1 (stereo unspecified)
- Activity [28]: -3.6%

SMILES: CCOC(=O)c1ccc2cc(C(=O)/C=C/c3ccc(OC)c(OC)c3OC)sc2c1
- Activity [28]: -13%

SMILES: COc1cccc2oc(C(=O)C[S+](C)[O-])cc12 (stereo unspecified)
- Activity [28]: 19.6%

SMILES: CCN(CC)c1ccc2cc(C(=O)C[S+](C)[O-])oc2c1 (stereo unspecified)
- Activity [28]: 10%

SMILES: CCOC(=O)c1cc2ccc(N(CC)CC)cc2o1
- Activity [28]: 44.6%

SMILES: COC(=O)c1ccc2cc(C(C)O)sc2c1 (stereo unspecified)
- Activity [28]: 81.4%

SMILES: C[S+]([O-])CC(O)c1cc2cc3c(cc2s1)OCO3 (stereo unspecified)
- Activity [28]: -9.3%

SMILES: COc1ccc2cc(C(=O)C[S+](C)[O-])oc2c1 (stereo unspecified)
- Activity [28]: 7.7%

SMILES: CCOC(=O)c1cc2cc(OC)ccc2o1
- Activity [28]: 64.1%

SMILES: CCOC(=O)c1ccc2cc(C(=O)/C=C/c3ccccc3)sc2c1
- Activity (Rattus norvegicus [1]): 41.98%
- Activity (Rattus norvegicus [2]): Non-toxic
- Activity (Rattus norvegicus [3]): Non-toxic
- Activity (Rattus norvegicus [4]): Active
- Activity (Rattus norvegicus [5]): Non-toxic
- Activity (Rattus norvegicus [6]): 2.83 ×10⁹ /L
- Activity (Rattus norvegicus [7]): Non-toxic
- Activity (Rattus norvegicus [8]): 25.2%
- Activity (Rattus norvegicus [9]): Non-toxic
- Activity (Rattus norvegicus [10]): Active
- Activity (Rattus norvegicus [11]): 6.98%
- Activity (Rattus norvegicus [12]): 0.29 mmol/L
- Activity (Rattus norvegicus [13]): Non-toxic
- Activity (Rattus norvegicus [14]): 103.08 U/L
- Activity (Rattus norvegicus [15]): 27 U/L
- Activity (Rattus norvegicus [16]): Active
- Activity (Rattus norvegicus [17]): 8.58%
- Activity (Rattus norvegicus [18]): Active
- Activity (Rattus norvegicus [19]): Non-toxic
- Activity (Rattus norvegicus [20]): Non-toxic
- LD50 at 336 h [29]: > 500 mg/kg
- Activity (Rattus norvegicus [21]): Non-toxic
- Activity (Mus musculus [30]): Non-toxic
- Activity (Rattus norvegicus [22]): Non-toxic
- Activity (Mus musculus [31]): Non-toxic
- Activity [28]: 85.9%
- Activity (Rattus norvegicus [23]): 1.26 micrometer/day
- Activity (Rattus norvegicus [24]): Non-toxic
- Activity (Rattus norvegicus [25]): 43.43%
- Activity (Rattus norvegicus [26]): Non-toxic
- Activity (Rattus norvegicus [27]): Non-toxic

SMILES: CCOC(=O)c1ccc2cc(C(=O)/C=C/c3ccccc3Cl)sc2c1
- Activity [28]: 39.1%

SMILES: CCOC(=O)c1cc2ccc(OC)cc2o1
- Activity (Rattus norvegicus [1]): 38.96%
- Activity (Rattus norvegicus [2]): Non-toxic
- Activity (Rattus norvegicus [3]): Non-toxic
- Activity (Rattus norvegicus [4]): Active
- Activity (Rattus norvegicus [5]): Non-toxic
- Activity (Rattus norvegicus [6]): 2.83 ×10⁹ /L
- Activity (Rattus norvegicus [7]): Non-toxic
- Activity (Rattus norvegicus [8]): 30.8%
- Activity (Rattus norvegicus [9]): Non-toxic
- Activity (Rattus norvegicus [10]): Active
- Activity (Rattus norvegicus [11]): 7.13%
- Activity (Rattus norvegicus [12]): 0.38 mmol/L
- Activity (Rattus norvegicus [13]): Non-toxic
- Activity (Rattus norvegicus [14]): 110.08 U/L
- Activity (Rattus norvegicus [15]): 27.67 U/L
- Activity (Rattus norvegicus [16]): Active
- Activity (Rattus norvegicus [17]): 8.23%
- Activity (Rattus norvegicus [18]): Active
- Activity (Rattus norvegicus [19]): Non-toxic
- Activity (Rattus norvegicus [20]): Non-toxic
- LD50 at 336 h [29]: > 500 mg/kg
- Activity (Rattus norvegicus [21]): Non-toxic
- Activity (Mus musculus [30]): Non-toxic
- Activity (Rattus norvegicus [22]): Non-toxic
- Activity (Mus musculus [31]): Non-toxic
- Activity [28]: 89.4%
- Activity (Rattus norvegicus [23]): 1.29 micrometer/day
- Activity (Rattus norvegicus [24]): Non-toxic
- Activity (Rattus norvegicus [25]): 46.18%
- Activity (Rattus norvegicus [26]): Non-toxic
- Activity (Rattus norvegicus [27]): Non-toxic

SMILES: COc1ccc2oc(C(O)C[S+](C)[O-])cc2c1 (stereo unspecified)
- Activity [28]: 16.9%
